# System: galK 1 site
# Assay: red/white colony screen of editing efficiency at the galK 1 site (CREATE recombineering)
# Type: cell-based, E. coli MG1655
# Conditions: for Editing Efficiency 1 mM Theo: induced for 3 hours with 1 mM theophylline; for Editing Efficiency no Theo: no theophylline, 3 hours recovery
# Procedure: Candidates from this enriched library were analyzed to inform an improved library design. After three selection/counterselection steps, cells were plated on M63 selection medium^20 and 150 colonies were picked. Each isolated candidate was then transformed into unedited E. coli to screen for theophylline-responsive constructs using a red/white colony assay to quantify the percentage of edited bacteria. Colonies with an unedited galK site appear red whereas edited colonies appear white (FIG. 5). The percentage of white colonies is considered the editing efficiency. Gene editing was induced as previously described with or without adding theophylline and the editing efficiencies were compared.
# The protocol established by Garst et al was mainly followed. LB containing kanamycin and chloramphenicol was inoculated with MGλ9 cells and grown overnight at 30° C. The stationary culture was diluted 100 fold in LB, containing chloramphenicol, kanamycin and 0.2% arabinose and grown to an OD600=0.4-0.6 in 25 mL LB. The culture was heat-shocked in a shaking waterbath at 42° C. for 15 minutes to induce expression of the lambda-red proteins from pSIM5. Then, the culture was washed in two volumes of ice-cold deionized water, resuspended in 500 μl deionized water and 50 μl of the cell suspension was electroporated with 200 ng of a CREATE plasmid that encodes gRNA and homology template. The transformants were recovered in 4 mL of LB, containing 0.2% arabinose and optionally 1 mM theophylline or 1 μM anhydrotetracycline (ATC), and shaken at 37° C. for 3 hours before plating on MacConkey Agar. To estimate the number of cfu, aliquots were plated on LB agar 1 hour after transformation.
# In order to assess the frequency of gene editing, a red/white screen was used to visualize the introduction of a stop codon into the galK gene by CREATE. The original CREATE protocol was used for inducing gene editing and after 3 hours of recovery (with or without the agRNA ligand) a series of dilutions of the cultures were plated on MacConkey Agar plates containing 1% galactose. Bacterial colonies with a mutated galK* site appear white on the plates, whereas non-edited colonies appear red. The editing efficiency could be calculated by dividing the number of edited colonies over the total number of colonies. By comparing the editing efficiency in presence versus absence of the ligand, a dynamic range of the in vivo activity could be determined.
# When screening the enriched libraries for switchable constructs, the transformants were recovered in 4 mL of LB broth, a dilution series was plated for every construct and the experiment was only carried out once due to the large volume of colonies screened (˜250 in total). When the constructs A9 and GU19 were characterized in detail, triplica of the experiment were carried out.
Substance,Editing Efficiency 1 mM Theo [%],Editing Efficiency no Theo [%],gene editing activity and ligand dependence (in words) (with and without aptamer ligand)
"A34: agRNA cassette TAGTTTAAACCGTT, SEQ ID NO: 7 (expressed or natural sequence)",57,12,–
"AU20: agRNA cassette AAATGGCCGGCAAT, SEQ ID NO: 33 (expressed or natural sequence)",0,0,–
"GU10: agRNA cassette GTACGGCCCATAAT, SEQ ID NO: 42 (expressed or natural sequence)",0,0,–
"GU1: agRNA cassette GACGGGCCTAATAT, SEQ ID NO: 34 (expressed or natural sequence)",0,0,–
"GC18: agRNA cassette GATTGGCCGCAACC, SEQ ID NO: 68 (expressed or natural sequence)",48,0,–
"GU3: agRNA cassette GCAGGGCCTCATTT, SEQ ID NO: 36 (expressed or natural sequence)",0,0,–
"GC3: agRNA cassette GTCCGGCCCCACAC, SEQ ID NO: 54 (expressed or natural sequence)",12,0,–
"3-methylxanthine aptamer: theophylline aptamer domain with C22A point mutation at the ligand-binding site; SEQ ID NO: 96 (AUACCAGCUUCGAAAGAAGCCAUUGGCAG; listed as RNA, chemistry not fully specified)",–,–,not activatable by theophylline
"GC6: agRNA cassette GATTGGCCAGCAAC, SEQ ID NO: 57 (expressed or natural sequence)",40,1,–
"GU13: agRNA cassette GGCCGGCCAAGCAT, SEQ ID NO: 45 (expressed or natural sequence)",6,0,–
"GC2: agRNA cassette GTCAGGCCTATACC, SEQ ID NO: 53 (expressed or natural sequence)",0,0,–
"GC12: agRNA cassette GATAGGCCAGTTAC, SEQ ID NO: 63 (expressed or natural sequence)",36,1,–
"AU2: agRNA cassette ACCAGGCCAAGTAT, SEQ ID NO: 16 (expressed or natural sequence)",4,0,–
"AU5: agRNA cassette ACTCGGCCTGAACT, SEQ ID NO: 19 (chemistry not given here)",43,0,–
"GU15: agRNA cassette GGACGGCCTACAAT, SEQ ID NO: 47 (expressed or natural sequence)",11,0,–
"AU4: agRNA cassette AACAGGCCTTAATT, SEQ ID NO: 18 (expressed or natural sequence)",0,0,–
"GU5: agRNA cassette GGTTGGCCTAATAT, SEQ ID NO: 38 (expressed or natural sequence)",2,0,–
"GC13: agRNA cassette GGAAGGCCTTATAC, SEQ ID NO: 64 (expressed or natural sequence)",64,0,–
"GU14: agRNA cassette GACTGGCCTATAAT, SEQ ID NO: 46 (expressed or natural sequence)",2,0,–
"AU6: agRNA cassette AAGGGGCCTATAAT, SEQ ID NO: 20 (expressed or natural sequence)",77,5,–
"GU9: agRNA cassette GTTCGGCCCCGACT, SEQ ID NO: 41 (expressed or natural sequence)",0,0,–
"AU9: agRNA cassette AAACGGCCCACTGT, SEQ ID NO: 23 (expressed or natural sequence)",22,1,–

Substance,Editing Efficiency 1 mM Theo [%],Editing Efficiency no Theo [%],gene editing activity and ligand dependence (in words) (with and without aptamer ligand)
"GU16: agRNA cassette GGGAGGCCAGCGAT, SEQ ID NO: 48 (expressed or natural sequence)",0,1,–
"GU2: agRNA cassette GCGAGGCCTACTAT, SEQ ID NO: 35 (expressed or natural sequence)",0,0,–
"G1B1: agRNA, 2×4 IL and upper stem cassette GTATCGCTTAAGCC, SEQ ID NO: 2 (expressed or natural sequence)",59,1,–
"AU8: agRNA cassette ACGGGGCCTAATAT, SEQ ID NO: 22 (expressed or natural sequence)",48,0.3,–
"AU19: agRNA cassette AATAGGCCCGCAGT, SEQ ID NO: 32 (expressed or natural sequence)",10,0,–
"GU4: agRNA cassette GATTGGCCATACAT, SEQ ID NO: 37 (expressed or natural sequence)",0,0,–
"GC20: agRNA cassette GCAAGGCCAACACC, SEQ ID NO: 69 (expressed or natural sequence)",64,0,–
"RG53: agRNA cassette AGTGAGCTAAAAAT, SEQ ID NO: 3 (expressed or natural sequence)",22,0,–
"GC4: agRNA cassette GGTCGGCCAGTAGC, SEQ ID NO: 55 (expressed or natural sequence)",1,0,–
"GC8: agRNA cassette GGACGGCCCTGTGC, SEQ ID NO: 59 (expressed or natural sequence)",0,1,–
"A10: agRNA cassette GATGGGCCTCCACC, SEQ ID NO: 9 (expressed or natural sequence)",14,0,–
"GC10: agRNA cassette GAGCGGCCACAACC, SEQ ID NO: 61 (expressed or natural sequence)",0,0,–
"GU6: agRNA cassette GGACGGCCAAGCAT, SEQ ID NO: 39 (expressed or natural sequence)",1,0,–
"A26: agRNA cassette GGGGGGCCACGCGC, SEQ ID NO: 13 (expressed or natural sequence)",89,5,–
"AU18: agRNA cassette AATAGGCCCAGACT, SEQ ID NO: 31 (expressed or natural sequence)",7,0,–
"GU18: agRNA cassette GATTGGCCTACGGT, SEQ ID NO: 50 (expressed or natural sequence)",1,0,–
"GC15: agRNA cassette GCATGGCCTACTCC, SEQ ID NO: 65 (expressed or natural sequence)",21,1,–
"A14: agRNA cassette GGAGGTACGGTGCC, SEQ ID NO: 10 (expressed or natural sequence)",87,2,–
"AU12: agRNA cassette AGAGGGCCGGGCGT, SEQ ID NO: 26 (expressed or natural sequence)",26,0,–
"GC7: agRNA cassette GGGGGGCCGAATAC, SEQ ID NO: 58 (expressed or natural sequence)",71,1,–
"AU11: agRNA cassette AATAGGCCACTTAT, SEQ ID NO: 25 (expressed or natural sequence)",25,0,–

# From patent US12416008B2, “Compositions and methods of use for small-molecule regulation of CRISPR-Cas9 activity using RNA aptamers” (priority 2019, dated 2025)
